Source: ChEMBL document CHEMBL1201862, “PubChem BioAssay data set” (2004)
pIC50: −log10 of the molar value. Activity calls are given as the source filed them.

Columns and labels:
[1] = molecular target: Exodeoxyribonuclease V (Escherichia coli (strain K12), UniProt P04993+P07648+P08394); test: E. coli RecBCD inhibitors, dose response, counter-screen for AddAB inhibitor project, absorbance, V66 E. coli, mutant T4 phage (AID 492957); type: functional, cell-based, Escherichia coli str. K-12 substr. MG1655
[2] = molecular target: Nonstructural protein 1 (Influenza A virus, UniProt Q194T2); type: functional, Influenza A virus (A/California/07/2009(H1N1))
Chain of Nonstructural protein 1 (Q194T2 whole entry): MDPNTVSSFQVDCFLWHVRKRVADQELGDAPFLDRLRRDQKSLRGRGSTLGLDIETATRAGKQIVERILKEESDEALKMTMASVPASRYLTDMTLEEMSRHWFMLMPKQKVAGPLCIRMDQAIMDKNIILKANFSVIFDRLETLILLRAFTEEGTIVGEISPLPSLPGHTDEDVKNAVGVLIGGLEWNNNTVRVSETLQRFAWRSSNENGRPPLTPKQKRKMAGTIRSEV

[3] = Counterscreen for AddAB inhibitors: absorbance-based bacterial cell-based high throughput dose response assay for inhibitors of bacterial viability. [Related pubchem assays (depositor defined):AID435030, AID449728, AID449731, AID488942, AID488955, AID488956]; type: functional
[4] = molecular target: T1, Microphthalmia-associated transcription factor (Homo sapiens, UniProt O75030); test: TRPM1 promoter luciferase signal decrease, dose response, MITF inhibitor project, cell-based, SK-MEL-5, cherry-picked, set 3 (AID 493073); type: functional
T1 sequence (O75030 whole entry): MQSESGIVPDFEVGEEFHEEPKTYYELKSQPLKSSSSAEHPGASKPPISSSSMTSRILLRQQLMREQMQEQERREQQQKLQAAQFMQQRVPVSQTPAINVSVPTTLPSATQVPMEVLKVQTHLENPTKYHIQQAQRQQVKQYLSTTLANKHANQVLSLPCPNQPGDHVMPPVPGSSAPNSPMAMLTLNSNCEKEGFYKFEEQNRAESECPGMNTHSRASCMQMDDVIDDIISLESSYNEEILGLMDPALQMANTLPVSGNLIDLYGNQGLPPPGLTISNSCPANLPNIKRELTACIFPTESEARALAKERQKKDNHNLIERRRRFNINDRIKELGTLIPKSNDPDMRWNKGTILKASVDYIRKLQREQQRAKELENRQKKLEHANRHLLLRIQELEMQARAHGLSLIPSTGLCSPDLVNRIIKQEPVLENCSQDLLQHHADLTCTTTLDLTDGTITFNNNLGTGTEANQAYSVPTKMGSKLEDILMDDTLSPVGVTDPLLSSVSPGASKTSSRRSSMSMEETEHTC

[5] = molecular target: Voltage-dependent T-type calcium channel subunit alpha-1H (Homo sapiens, UniProt O95180); test: Cav3.2 T-type channel blockers, cell-based, SynthLib3 library, HEK293 Cav3.2, fluorescence (AID 493041); type: functional
[6] = molecular target: T2, Delta-type opioid receptor (Homo sapiens, UniProt P41143); test: HTS Image-Based Screen for Antagonists of the DOR Receptor. [Related pubchem assays (depositor defined):AID1777, AID1785, AID1786, AID2133]; type: functional
T2 sequence (P41143 whole entry): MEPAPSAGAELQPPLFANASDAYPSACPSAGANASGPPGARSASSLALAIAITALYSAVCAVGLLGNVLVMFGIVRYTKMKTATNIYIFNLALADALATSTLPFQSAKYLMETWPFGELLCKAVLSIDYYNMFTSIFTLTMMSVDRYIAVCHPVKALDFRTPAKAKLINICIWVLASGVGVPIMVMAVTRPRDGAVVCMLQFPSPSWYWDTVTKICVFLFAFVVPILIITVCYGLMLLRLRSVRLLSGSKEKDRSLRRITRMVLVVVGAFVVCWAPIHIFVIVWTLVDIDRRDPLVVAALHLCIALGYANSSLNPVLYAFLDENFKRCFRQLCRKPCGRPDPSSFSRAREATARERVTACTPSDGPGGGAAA

[7] = molecular target: Mu-type opioid receptor (Homo sapiens, UniProt P35372); test: HTS Image-Based Screen for Agonists of the MOR Receptor. [Related pubchem assays (depositor defined):AID1777, AID1785, AID1786, AID2133]; type: functional;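 also: imaging of beta-arrestin GFP recruitment into spots after receptor activation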
Chain of Mu-type opioid receptor (P35372 whole entry): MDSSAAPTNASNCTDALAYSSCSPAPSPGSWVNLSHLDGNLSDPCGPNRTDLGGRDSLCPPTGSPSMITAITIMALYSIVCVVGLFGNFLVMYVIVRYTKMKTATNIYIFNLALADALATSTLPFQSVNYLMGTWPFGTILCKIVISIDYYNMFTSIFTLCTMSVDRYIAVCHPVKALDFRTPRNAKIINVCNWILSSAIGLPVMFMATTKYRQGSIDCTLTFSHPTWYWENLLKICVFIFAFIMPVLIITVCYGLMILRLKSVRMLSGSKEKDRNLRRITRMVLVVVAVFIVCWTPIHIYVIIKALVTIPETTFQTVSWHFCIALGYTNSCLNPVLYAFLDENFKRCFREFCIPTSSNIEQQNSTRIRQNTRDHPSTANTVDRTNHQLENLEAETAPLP

[8] = molecular target: T2, Delta-type opioid receptor; test: HTS Image-Based Screen for Agonists of the DOR Receptor. [Related pubchem assays (depositor defined):AID1777, AID1786, AID2133]; type: functional
[9] = molecular target: T3, Kappa-type opioid receptor (Homo sapiens, UniProt P41145); type: functional
T3 sequence (P41145 whole entry): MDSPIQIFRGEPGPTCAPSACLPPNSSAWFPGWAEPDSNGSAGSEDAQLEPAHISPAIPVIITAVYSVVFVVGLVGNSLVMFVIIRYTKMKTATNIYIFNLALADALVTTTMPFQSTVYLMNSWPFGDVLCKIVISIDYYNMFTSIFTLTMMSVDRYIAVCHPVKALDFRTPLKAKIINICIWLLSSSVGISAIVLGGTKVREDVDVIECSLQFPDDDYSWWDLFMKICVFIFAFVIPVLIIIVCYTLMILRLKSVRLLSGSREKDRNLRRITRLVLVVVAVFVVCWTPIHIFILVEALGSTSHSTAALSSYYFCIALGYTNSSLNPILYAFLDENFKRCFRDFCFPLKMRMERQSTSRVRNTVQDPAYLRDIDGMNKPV

[10] = molecular target: Beta-galactosidase (Escherichia coli, UniProt Q8VNN2); type: functional
Chain of Beta-galactosidase (Q8VNN2 whole entry): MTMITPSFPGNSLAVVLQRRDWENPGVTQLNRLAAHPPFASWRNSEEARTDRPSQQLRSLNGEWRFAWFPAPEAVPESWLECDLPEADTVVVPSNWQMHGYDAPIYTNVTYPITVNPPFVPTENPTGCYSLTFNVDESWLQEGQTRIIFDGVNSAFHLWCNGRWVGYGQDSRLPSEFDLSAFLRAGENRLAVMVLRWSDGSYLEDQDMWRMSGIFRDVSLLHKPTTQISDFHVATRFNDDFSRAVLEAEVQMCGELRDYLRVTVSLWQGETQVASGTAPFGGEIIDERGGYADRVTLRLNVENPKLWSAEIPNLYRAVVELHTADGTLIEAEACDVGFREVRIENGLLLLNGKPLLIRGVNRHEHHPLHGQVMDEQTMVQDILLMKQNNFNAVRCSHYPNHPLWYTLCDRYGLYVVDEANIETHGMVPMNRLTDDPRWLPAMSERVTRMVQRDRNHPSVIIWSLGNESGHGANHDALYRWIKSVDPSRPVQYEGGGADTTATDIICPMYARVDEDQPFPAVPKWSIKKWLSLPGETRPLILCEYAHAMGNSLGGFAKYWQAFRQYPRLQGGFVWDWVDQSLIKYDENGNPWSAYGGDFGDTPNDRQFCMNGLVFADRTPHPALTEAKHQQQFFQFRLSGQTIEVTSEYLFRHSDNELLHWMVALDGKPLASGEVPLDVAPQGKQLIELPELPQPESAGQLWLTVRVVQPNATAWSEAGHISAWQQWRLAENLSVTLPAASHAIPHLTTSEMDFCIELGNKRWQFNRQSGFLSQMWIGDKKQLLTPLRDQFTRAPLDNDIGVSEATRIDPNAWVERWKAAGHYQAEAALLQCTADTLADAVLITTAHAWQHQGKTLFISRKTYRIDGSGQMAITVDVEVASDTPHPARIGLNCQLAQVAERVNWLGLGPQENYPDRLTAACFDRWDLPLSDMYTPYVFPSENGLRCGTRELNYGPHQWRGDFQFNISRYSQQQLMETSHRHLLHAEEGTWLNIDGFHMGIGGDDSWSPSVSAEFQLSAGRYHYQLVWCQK

[11] = molecular target: T3, Kappa-type opioid receptor; type: functional; remark: listed apart in the source
[12] = molecular target: T4, Cannabinoid receptor 2 (Homo sapiens, UniProt P34972); test: SAR analysis of antagonists of the Cannabinoid Receptor 2 using an Image-Based Assay - Set 2. [Related pubchem assays (depositor defined):AID1961, AID1965]; type: functional
T4 sequence (P34972 whole entry): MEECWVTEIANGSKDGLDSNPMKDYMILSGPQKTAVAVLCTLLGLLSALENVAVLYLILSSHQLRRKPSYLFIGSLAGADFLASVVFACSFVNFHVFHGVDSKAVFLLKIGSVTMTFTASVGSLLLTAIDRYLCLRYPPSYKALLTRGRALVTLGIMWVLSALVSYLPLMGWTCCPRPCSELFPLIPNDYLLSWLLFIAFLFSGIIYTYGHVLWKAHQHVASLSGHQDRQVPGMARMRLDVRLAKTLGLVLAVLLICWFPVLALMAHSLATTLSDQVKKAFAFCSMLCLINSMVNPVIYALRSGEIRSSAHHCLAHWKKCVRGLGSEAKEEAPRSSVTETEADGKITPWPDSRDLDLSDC

[13] = molecular target: T4, Cannabinoid receptor 2; test: SAR analysis of agonists of the Cannabinoid Receptor 2 using an Image-Based Assay - Set 2. [Related pubchem assays (depositor defined):AID1961, AID1965]; type: functional
[14] = molecular target: G-protein coupled receptor 55 (Homo sapiens, UniProt Q9Y2T6); test: SAR analysis of selective Agonists of GPR55 using an Image-Based Assay. [Related pubchem assays (depositor defined):AID1961, AID1965]; type: functional
Chain of G-protein coupled receptor 55 (Q9Y2T6 whole entry): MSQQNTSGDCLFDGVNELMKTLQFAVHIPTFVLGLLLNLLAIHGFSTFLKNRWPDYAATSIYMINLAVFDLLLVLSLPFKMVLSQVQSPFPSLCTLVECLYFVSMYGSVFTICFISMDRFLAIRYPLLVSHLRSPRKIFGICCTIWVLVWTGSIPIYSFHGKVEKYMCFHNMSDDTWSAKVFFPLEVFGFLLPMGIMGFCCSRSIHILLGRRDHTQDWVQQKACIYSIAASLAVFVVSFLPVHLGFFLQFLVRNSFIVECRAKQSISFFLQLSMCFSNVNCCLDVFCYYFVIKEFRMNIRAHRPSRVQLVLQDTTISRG

[15] = molecular target: Cannabinoid receptor 1 (Homo sapiens, UniProt P21554); test: SAR analysis of antagonists of the Cannabinoid Receptor 1 using an Image-Based Assay. [Related pubchem assays (depositor defined):AID1961, AID1965]; type: functional
Chain of Cannabinoid receptor 1 (P21554 whole entry): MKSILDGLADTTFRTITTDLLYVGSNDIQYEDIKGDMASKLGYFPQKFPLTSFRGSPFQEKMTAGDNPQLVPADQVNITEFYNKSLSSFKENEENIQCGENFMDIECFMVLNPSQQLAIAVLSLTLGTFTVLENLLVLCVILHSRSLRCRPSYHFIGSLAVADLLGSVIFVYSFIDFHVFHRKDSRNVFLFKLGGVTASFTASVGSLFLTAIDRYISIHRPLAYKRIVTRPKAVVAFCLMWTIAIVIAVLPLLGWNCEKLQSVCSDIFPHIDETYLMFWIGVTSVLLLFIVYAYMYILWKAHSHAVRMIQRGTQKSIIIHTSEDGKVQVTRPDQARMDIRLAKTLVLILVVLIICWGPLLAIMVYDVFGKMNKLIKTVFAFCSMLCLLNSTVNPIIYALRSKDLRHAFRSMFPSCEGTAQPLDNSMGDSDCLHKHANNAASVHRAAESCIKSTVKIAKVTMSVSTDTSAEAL

[16] = molecular target: T5, Aspartyl aminopeptidase (Plasmodium falciparum 3D7, UniProt Q8I2J3); test: Counterscreen for inhibitors of M1 and M17 aminopeptidases: QFRET-based biochemical high throughput dose response assay for inhibitors of the Plasmodium falciparum M18 Aspartyl Aminopeptidase (PFM18AAP). [Related PubChem assays: 1619 (Screening assay (M17LAP inhibitors).), 1445 (Screening assay (M1AAP inhibitors).)]
T5 sequence (Q8I2J3 whole entry): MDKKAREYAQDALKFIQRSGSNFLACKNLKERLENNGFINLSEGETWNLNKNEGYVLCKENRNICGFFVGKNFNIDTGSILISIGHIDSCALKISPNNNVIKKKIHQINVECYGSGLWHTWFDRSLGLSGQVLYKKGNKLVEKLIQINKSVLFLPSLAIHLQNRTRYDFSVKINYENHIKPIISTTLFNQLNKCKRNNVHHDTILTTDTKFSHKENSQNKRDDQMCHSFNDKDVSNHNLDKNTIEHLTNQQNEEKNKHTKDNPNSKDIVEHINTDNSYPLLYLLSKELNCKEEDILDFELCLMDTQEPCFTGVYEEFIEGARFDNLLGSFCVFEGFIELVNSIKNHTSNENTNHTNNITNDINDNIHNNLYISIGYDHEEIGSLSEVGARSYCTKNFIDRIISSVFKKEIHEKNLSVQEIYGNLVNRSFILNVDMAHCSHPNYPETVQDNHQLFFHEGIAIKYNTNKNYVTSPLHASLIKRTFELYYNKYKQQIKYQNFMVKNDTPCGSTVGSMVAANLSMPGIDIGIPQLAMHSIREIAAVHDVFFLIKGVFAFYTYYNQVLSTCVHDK

[17] = molecular target: T6, Aminopeptidase N (Plasmodium falciparum FcB1/Columbia, UniProt O96935); test: P. falciparum M1AAP inhibitors, biochemical, fluorogenic H-Leu-NHMec substrate, 1536-well (AID 1445); design: species or system Plasmodium falciparum 3D7, 3D7
T6 sequence (O96935 whole entry): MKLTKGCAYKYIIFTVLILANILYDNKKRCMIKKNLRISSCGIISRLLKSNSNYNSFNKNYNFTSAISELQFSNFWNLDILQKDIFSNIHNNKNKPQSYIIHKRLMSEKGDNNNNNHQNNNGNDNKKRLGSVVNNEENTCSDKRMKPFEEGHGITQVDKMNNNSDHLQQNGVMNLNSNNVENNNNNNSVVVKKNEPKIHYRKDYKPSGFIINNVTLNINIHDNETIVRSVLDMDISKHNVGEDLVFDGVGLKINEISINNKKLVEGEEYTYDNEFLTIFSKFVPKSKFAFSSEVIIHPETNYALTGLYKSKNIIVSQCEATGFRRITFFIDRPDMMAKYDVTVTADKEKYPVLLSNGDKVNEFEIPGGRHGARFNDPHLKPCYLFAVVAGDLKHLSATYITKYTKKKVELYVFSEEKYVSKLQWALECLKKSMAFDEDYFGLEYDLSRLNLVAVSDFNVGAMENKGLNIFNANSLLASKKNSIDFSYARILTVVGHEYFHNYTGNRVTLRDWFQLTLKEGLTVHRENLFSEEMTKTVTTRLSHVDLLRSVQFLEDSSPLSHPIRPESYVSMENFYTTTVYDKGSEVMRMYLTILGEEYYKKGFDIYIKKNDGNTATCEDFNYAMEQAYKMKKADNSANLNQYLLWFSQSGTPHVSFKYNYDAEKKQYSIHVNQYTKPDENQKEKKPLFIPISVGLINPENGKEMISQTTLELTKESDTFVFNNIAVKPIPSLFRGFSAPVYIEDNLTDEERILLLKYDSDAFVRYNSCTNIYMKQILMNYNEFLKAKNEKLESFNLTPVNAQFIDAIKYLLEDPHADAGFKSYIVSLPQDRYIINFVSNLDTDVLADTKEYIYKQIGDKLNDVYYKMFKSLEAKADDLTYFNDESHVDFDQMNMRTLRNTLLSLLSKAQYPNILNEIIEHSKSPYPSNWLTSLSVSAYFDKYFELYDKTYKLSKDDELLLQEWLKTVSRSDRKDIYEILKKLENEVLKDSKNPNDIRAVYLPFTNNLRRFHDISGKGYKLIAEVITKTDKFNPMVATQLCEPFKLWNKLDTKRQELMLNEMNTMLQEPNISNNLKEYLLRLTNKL

[18] = molecular target: Procathepsin L (Homo sapiens, UniProt P07711); test: cathepsin L inhibitors, dose response, counter-screen for M1/M17 aminopeptidase inhibitor project, biochemical, QFRET, 1536-well (AID 2214)
[19] = molecular target: Intestinal-type alkaline phosphatase (Mus musculus, UniProt P24822); test: PubChem AID 488785; type: functional
Chain of Intestinal-type alkaline phosphatase (Mus musculus, UniProt P24822) (P24822 whole entry): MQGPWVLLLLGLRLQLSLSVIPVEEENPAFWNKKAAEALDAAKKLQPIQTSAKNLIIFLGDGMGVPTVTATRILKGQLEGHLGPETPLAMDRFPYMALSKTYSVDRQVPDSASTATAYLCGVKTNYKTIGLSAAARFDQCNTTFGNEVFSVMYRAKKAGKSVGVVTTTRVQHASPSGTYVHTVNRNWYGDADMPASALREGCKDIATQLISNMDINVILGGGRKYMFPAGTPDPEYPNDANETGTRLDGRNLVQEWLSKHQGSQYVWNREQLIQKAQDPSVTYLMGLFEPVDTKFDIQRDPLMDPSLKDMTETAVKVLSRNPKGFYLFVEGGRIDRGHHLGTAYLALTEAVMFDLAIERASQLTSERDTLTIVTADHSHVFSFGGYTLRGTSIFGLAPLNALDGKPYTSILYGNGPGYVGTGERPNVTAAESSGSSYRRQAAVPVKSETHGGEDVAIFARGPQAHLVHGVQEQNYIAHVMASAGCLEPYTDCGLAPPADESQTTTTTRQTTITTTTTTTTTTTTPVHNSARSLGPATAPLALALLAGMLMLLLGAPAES

[20] = molecular target: T7, Alkaline phosphatase, tissue-nonspecific isozyme (Homo sapiens, UniProt P05186); test: TNAP enzyme inhibition by screening hits, dose response, selectivity assay for mouse IAP inhibitor project, biochemical, human TNAP, uHTS hits (AID 488906); type: functional
T7 sequence (P05186 whole entry): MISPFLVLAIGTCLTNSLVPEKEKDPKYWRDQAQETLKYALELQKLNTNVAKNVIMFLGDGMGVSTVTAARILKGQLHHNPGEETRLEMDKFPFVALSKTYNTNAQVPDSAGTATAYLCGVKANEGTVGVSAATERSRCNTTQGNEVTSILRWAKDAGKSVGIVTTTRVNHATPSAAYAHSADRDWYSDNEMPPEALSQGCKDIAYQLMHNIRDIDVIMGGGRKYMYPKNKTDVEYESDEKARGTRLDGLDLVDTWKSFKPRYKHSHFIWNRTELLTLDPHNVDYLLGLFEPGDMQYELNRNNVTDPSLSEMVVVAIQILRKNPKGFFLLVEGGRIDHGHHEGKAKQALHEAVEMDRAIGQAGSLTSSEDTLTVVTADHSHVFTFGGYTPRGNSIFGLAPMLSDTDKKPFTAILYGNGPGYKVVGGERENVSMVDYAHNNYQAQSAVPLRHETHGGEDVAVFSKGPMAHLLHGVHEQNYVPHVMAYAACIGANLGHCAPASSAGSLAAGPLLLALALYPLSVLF

[21] = molecular target: Intestinal-type alkaline phosphatase (Homo sapiens, UniProt P09923); test: inhibition of human intestinal alkaline phosphatase – biochemical, dose response (AID 488876); type: functional
Chain of Intestinal-type alkaline phosphatase (Homo sapiens, UniProt P09923) (P09923 whole entry): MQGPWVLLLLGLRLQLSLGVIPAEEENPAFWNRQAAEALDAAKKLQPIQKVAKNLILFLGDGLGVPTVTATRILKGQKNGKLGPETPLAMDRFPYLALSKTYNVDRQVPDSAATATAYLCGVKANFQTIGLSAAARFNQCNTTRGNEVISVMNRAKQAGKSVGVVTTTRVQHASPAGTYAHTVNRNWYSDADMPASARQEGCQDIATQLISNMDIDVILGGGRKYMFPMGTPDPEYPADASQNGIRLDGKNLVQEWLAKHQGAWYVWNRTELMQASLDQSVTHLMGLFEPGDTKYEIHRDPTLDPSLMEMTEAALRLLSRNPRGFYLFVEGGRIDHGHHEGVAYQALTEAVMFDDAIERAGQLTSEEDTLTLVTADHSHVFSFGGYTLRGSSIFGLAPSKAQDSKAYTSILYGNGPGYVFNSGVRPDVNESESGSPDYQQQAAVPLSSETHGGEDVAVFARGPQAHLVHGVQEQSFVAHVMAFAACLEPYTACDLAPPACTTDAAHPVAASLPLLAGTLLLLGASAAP

O=C(O)c1cccc(NC(=S)N/N=C/c2ccccn2)c1
IC50 [1]: > 119 µM (inactive) | IC50 [2]: 4.06 µM (active) | IC50 [3]: > 119 µM (inactive) | AC50 [4]: 8.63 µM (active)

CC(C)CCN1CC2CCC(NC(=O)c3cc(Cl)cc(Cl)c3)C2C1 (stereo unspecified)
EC50 [5]: 1.8 µM (active)

CCOc1ccccc1C(=O)NC1CC2CCCC(C1)N2Cc1ccc(C)cc1 (stereo unspecified)
IC50 [6]: > 32 µM (inactive) | EC50 [7]: > 32 µM (inactive) | EC50 [8]: > 32 µM (inactive) | IC50 [9]: 4.81 µM (active) | EC50 [10]: > 31.5 µM (inactive) | pIC50 [11]: 4.66

CCCN(CCC)Cc1c(C(=O)NN=C/C(C)=C\c2ccco2)nnn1-c1nonc1N
IC50 [12]: > 32 µM (inactive) | EC50 [13]: > 32 µM (inactive) | EC50 [14]: 0.597 µM (active) | IC50 [15]: > 32 µM (inactive)

O=C1Nc2ccccc2/C1=C1/SC(=S)N(NC(=O)c2ccccc2)C1=O
IC50 [16]: > 73.5 µM (not active) | IC50 [17]: 11.2 µM (active) | IC50 [18]: 38.3 µM (not active) | IC50 [19]: 6.46 µM (active) | IC50 [20]: > 100 µM (inactive) | IC50 [21]: 3.09 µM (active)
